How the values were obtained:
[1] = molecular target: T1, ACL (Homo sapiens (Human), UniProt P53396); test: ADP-Glo Assay
Target sequence in this assay (P53396 other isoform, or with tags, fused parts or gaps isoform P53396-2): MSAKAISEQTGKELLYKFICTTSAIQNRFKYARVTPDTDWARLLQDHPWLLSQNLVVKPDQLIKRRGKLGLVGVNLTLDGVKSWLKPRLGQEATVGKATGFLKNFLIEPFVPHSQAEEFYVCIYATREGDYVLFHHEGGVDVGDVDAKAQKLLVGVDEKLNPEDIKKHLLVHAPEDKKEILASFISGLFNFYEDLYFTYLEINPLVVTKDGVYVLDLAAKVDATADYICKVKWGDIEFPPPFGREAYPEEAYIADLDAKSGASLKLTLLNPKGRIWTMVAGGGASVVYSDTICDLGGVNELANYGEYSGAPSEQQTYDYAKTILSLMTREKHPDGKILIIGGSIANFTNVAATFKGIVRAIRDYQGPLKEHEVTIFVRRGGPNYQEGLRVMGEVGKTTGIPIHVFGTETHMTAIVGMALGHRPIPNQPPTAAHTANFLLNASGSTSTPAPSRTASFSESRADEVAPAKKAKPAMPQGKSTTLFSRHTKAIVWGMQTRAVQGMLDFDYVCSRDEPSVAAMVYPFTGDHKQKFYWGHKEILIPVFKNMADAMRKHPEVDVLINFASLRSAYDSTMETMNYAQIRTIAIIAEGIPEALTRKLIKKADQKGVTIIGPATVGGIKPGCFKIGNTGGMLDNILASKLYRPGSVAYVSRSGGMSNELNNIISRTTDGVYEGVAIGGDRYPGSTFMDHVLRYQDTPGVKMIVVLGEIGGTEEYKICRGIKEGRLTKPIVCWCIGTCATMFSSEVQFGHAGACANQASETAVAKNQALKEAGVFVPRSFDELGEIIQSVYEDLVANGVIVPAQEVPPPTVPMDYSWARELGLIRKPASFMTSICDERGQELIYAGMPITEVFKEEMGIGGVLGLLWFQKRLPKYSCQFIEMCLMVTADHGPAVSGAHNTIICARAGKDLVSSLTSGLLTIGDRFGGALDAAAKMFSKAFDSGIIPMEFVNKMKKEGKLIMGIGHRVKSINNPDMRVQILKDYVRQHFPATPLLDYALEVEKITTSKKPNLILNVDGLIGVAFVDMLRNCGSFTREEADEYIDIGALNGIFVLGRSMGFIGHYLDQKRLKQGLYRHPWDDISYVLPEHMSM
Description: Compounds of the present invention were evaluated in an ADP-GLO assay as follows:
b) Add 0.1 μL diluted cpd solution to assay plate, each dose with 2 replicates c) Centrifuge 1000 RPM for 1 min d) Add 5 μL ACL working solution to 384-well assay plate, centrifuge 1000 RPM for 1 min e) Incubate at 25° C. for 15 min f) Add 5 μL substrate working solution to initiate reaction
h) Reference final conc: 30 uM starting Conc, 3× dilution, 11+0 points. Test cpd conc: 30/100 uM starting Conc, 3× dilution, 11+0 points. i) Incubate at 25° C. for 60 min j) Add 10 μL ADP Glo reagent, centrifuge 1000 RPM for 1 min k) Incubate at 25° C. for 40 min l) Add 20 μL kinase detection reagent, centrifuge 1000 RPM for 1 min m) Incubate at 25° C. for 40 min n) Read on Envision for US LUM as RLU

[2] = molecular target: T1, ACL; test: ACLY-MDH Coupled Assay
Target sequence in this assay (P53396 whole entry, species assumed): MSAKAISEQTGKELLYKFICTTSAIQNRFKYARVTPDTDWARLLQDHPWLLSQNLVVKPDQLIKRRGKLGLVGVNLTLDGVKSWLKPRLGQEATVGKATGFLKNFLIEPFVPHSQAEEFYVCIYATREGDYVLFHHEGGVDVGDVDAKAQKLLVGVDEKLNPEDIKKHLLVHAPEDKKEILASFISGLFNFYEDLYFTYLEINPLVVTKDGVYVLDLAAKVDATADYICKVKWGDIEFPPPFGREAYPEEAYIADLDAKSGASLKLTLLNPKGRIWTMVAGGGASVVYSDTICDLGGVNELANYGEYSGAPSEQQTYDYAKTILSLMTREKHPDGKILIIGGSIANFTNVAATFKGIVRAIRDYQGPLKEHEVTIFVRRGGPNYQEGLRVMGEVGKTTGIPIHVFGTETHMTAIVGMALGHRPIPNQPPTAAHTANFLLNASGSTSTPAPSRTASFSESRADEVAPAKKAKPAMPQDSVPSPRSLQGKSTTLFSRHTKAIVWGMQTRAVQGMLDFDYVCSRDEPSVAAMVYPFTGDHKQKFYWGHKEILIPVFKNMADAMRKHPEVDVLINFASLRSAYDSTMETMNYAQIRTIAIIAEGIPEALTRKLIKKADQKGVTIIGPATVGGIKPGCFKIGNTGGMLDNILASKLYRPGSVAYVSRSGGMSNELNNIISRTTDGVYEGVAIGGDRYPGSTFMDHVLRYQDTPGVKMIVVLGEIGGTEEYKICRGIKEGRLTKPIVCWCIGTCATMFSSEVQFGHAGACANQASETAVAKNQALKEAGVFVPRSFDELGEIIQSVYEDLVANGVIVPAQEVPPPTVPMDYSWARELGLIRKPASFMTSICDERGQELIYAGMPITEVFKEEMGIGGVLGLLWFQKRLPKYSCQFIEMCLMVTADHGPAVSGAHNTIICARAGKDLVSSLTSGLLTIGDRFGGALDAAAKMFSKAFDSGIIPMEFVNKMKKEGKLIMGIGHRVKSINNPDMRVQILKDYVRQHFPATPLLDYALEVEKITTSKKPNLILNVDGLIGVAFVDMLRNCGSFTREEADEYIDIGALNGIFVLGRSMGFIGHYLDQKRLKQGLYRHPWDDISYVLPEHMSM
Description: Compounds of the present invention were evaluated in an ACLY Coupled Assay.
The assay protocol for the Coupled Assay (below) was followed:
b) Add 1 μL cpds to 96 assay plate, Test cpd conc: 100/30/10 μM top dose, 3 folds dilution, 10+0+control (control: buffer without ACL+DMSO) points, 1000 rpm for 1 min, incubation at 25° C. for 60 min

[3] = read-out: ACL-ADP-Glo (IC50), 3 nM ACL, 15 μM ATP, 3 μM CoA, 300 μM Citrate
[4] = read-out: ACL-MDH Coupled Assay (IC50), 8 nM ACL, 60 μM CoA Na2, 85 μM Citrate, 250 μM ATP, 250 μM NADH

| SMILES | IC50 [1] | IC50 [2] | IC50 [1, 3] | IC50 [2, 4] |
| --- | --- | --- | --- | --- |
| O=C(c1cc(Cl)c(O)c(S(=O)(=O)Nc2cc(C3CC3)c(F)cc2F)c1)N1CCCC1 [I-193, 3-chloro-N-(5-cyclopropyl-2,4-difluorophenyl)-2-hydroxy-5-(pyrrolidine-1-carbonyl)benzene-1-sulfonamide] | 500 to 20000 nM | 500 to 30000 nM | – | – |
| O=c1[nH]cc(C(F)(F)F)cc1S(=O)(=O)Nc1cc(-c2ccccc2)ccc1F [I-355, N-[4-fluoro-[1,1-biphenyl]-3-yl]-2-oxo-5-(trifluoromethyl)-1,2-dihydropyridine-3-sulfonamide] | 50 to 500 nM | 500 to 30000 nM | – | – |
| O=C(O)c1ccc(-c2ccccc2)cc1NS(=O)(=O)Cc1cc(Cl)cc(Cl)c1 [I-305, 3-(((3,5-dichlorophenyl)methyl)sulfonamido)-[1,1′-biphenyl]-4-carboxylic acid] | 500 to 20000 nM | 500 to 30000 nM | – | – |
| CC(=O)N1CCc2cc(Br)c(S(=O)(=O)Nc3cc(-c4ccccc4)ccc3C(=O)O)cc21 [I-338] | 500 to 20000 nM | 500 to 30000 nM | – | – |
| O=C(O)c1ccc(-c2cccs2)cc1NS(=O)(=O)c1cc(Cl)cc(C(F)(F)F)c1 [I-366, 2-((3-chloro-5-(trifluoromethyl)phenyl)sulfonamido)-4-(thiophen-2-yl)benzoic Acid] | 50 to 500 nM | 50 to 500 nM | – | – |
| O=C(c1cc(Cl)c(O)c(S(=O)(=O)Nc2cc(-n3nccn3)ccc2F)c1)N1CCC1 [I-241, 5-(azetidine-1-carbonyl)-3-chloro-N-(2-fluoro-5-(2H-1,2,3-triazol-2-yl)phenyl)-2-hydroxybenzenesulfonamide] | 50 to 500 nM | 500 to 30000 nM | – | – |
| O=C(O)c1ccc(-c2ccccc2)cc1NS(=O)(=O)c1cccc2nonc12 [I-339] | 500 to 20000 nM | 500 to 30000 nM | – | – |
| O=C(O)c1ccc(-c2ccccc2)cc1NS(=O)(=O)c1cc(Cl)c[nH]c1=O [I-350, 3-((5-chloro-2-oxo-1,2-dihydropyridine)-3-sulfonamido)-[1,1′-biphenyl]-4-carboxylic acid] | 500 to 20000 nM | 500 to 30000 nM | – | – |
| O=C(c1cncs1)N(c1ccc(Cl)cc1)S(=O)(=O)c1cc(Br)cc(Cl)c1O [I-511, N-((5-bromo-3-chloro-2-hydroxyphenyl)sulfonyl)-N-(4-chlorophenyl)thiazole-5-carboxamide] | 500 to 20000 nM | 500 to 30000 nM | – | – |
| O=C(O)c1ccc(-c2ccccc2)cc1NS(=O)(=O)c1c(Cl)nc2ccc(Br)cn12 [I-334] | 500 to 20000 nM | 500 to 30000 nM | – | – |
| CCN(c1ccc(Cl)cc1)S(=O)(=O)c1cc(Br)cc(Cl)c1O [I-513, 5-bromo-3-chloro-N-(4-chlorophenyl)-N-ethyl-2-hydroxybenzene Sulfonamide] | 500 to 20000 nM | 500 to 30000 nM | – | – |
| Nc1ccc(-c2ccccc2)cc1NS(=O)(=O)c1cc(Cl)cc(Br)c1O [I-53, N-(2-amino-5-phenylphenyl)-3-bromo-5-chloro-2-hydroxybenzene-1-sulfonamide] | 500 to 20000 nM | 500 to 30000 nM | – | – |
| O=S(=O)(Nc1cc(-c2nn[nH]n2)ccc1F)c1cc(Cl)cc(Cl)c1O [I-24, 3,5-dichloro-N-[2-fluoro-5-(2H-1,2,3,4-tetrazol-5-yl)phenyl]-2-hydroxybenzene-1-sulfonamide] | 500 to 20000 nM | 500 to 30000 nM | – | – |
| O=C(c1cc(Cl)c(O)c(S(=O)(=O)Nc2cc(C3CC3)c(F)cc2F)c1)N1CCC1 [I-137, 5-(azetidine-1-carbonyl)-3-chloro-N-(5-cyclopropyl-2,4-difluorophenyl)-2-hydroxybenzene-1-sulfonamide] | 50 to 500 nM | 50 to 500 nM | – | – |
| O=C(O)c1ccc(-c2ccccc2)cc1NS(=O)(=O)c1cc(Br)cc(C(F)(F)F)c1 [I-306, 3-((3-bromo-5-(trifluoromethyl)phenyl)sulfonamido)-[1,1′-biphenyl]-4-carboxylic acid] | 50 to 500 nM | 50 to 500 nM | – | – |

Other lines, results leading:

| IC50 [1] | IC50 [2] | IC50 [1, 3] | IC50 [2, 4] | SMILES |
| --- | --- | --- | --- | --- |
| – | – | < 50 nM | < 50 nM | COc1ccc(-c2cc3ccccc3s2)cc1NS(=O)(=O)c1cc(C(=O)N2CCC2)cc(Cl)c1O [I-503, 5-(azetidine-1-carbonyl)-N-(5-(benzo[b]thiophen-2-yl)-2-methoxyphenyl)-3-chloro-2-hydroxybenzenesulfonamide] |
| 500 to 20000 nM | 500 to 30000 nM | – | – | O=S(=O)(Nc1cc(-c2ccccc2)c(F)cc1F)c1cc(-c2nnn[nH]2)cc(Cl)c1O [I-269, 3-chloro-N-[4,6-difluoro-[1,1-biphenyl]-3-yl]-2-hydroxy-5-(1H-1,2,3,4-tetrazol-5-yl)benzene-1-sulfonamide] |
| 50 to 500 nM | 500 to 30000 nM | – | – | O=C(c1cc(Cl)c(O)c(S(=O)(=O)Nc2cc(-c3ccccc3)ncc2F)c1)N1CCC1 [I-222, 5-(azetidine-1-carbonyl)-3-chloro-N-(5-fluoro-2-phenylpyridin-4-yl)-2-hydroxybenzene-1-sulfonamide] |
| 50 to 500 nM | 500 to 30000 nM | – | – | CNC(=O)c1cc(Cl)c(O)c(S(=O)(=O)Nc2cc(-c3ccccc3)ccc2OC)c1 [I-66, 3-chloro-4-hydroxy-5-[(2-methoxy-5-phenylphenyl)sulfamoyl]-N-methylbenzamide] |
| 500 to 20000 nM | 500 to 30000 nM | – | – | O=C(O)c1ccc(-c2ccccc2)cc1NS(=O)(=O)c1cc(Cl)c(Cl)s1 [I-311, 3-((4,5-dichlorothiophene)-2-sulfonamido)-[1,1′-biphenyl]-4-carboxylic acid] |
| 50 to 500 nM | 50 to 500 nM | – | – | COc1ccc(-c2ccccc2)cc1NS(=O)(=O)c1cc(C(=O)N(C)C)cc(Cl)c1O [I-56, 3-chloro-4-hydroxy-5-[(2-methoxy-5-phenylphenyl)sulfamoyl]-N,N-dimethylbenzamide] |
| 50 to 500 nM | 500 to 30000 nM | – | – | COC(=O)c1cc(Cl)c(O)c(S(=O)(=O)Nc2ccc(F)cc2F)c1 [I-74, Methyl 3-chloro-5-(N-(2,4-difluorophenyl)sulfamoyl)-4-hydroxybenzoate] |
| 500 to 20000 nM | 500 to 30000 nM | – | – | O=C(Nc1cc(-c2cc3ccccc3s2)ccc1C(=O)O)c1cc(Cl)cc(Cl)c1 [I-515, 4-(benzo[b]thiophen-2-yl)-2-(3,5-dichlorobenzamido)benzoic Acid] |
| 50 to 500 nM | 500 to 30000 nM | – | – | COc1ccc(-c2ccccc2)cc1NS(=O)(=O)c1cc(C(N)=O)cc(Cl)c1O [I-55, 3-chloro-4-hydroxy-5-[(2-methoxy-5-phenylphenyl)sulfamoyl]benzamide] |
| 500 to 20000 nM | 500 to 30000 nM | – | – | COC(=O)c1cc(Cl)c(O)c(C(=O)Nc2cc(-c3ccccc3)c(F)cc2F)c1 [I-146, methyl 3-chloro-5-((4,6-difluoro-[1,1′-biphenyl]-3-yl)carbamoyl)-4-hydroxybenzoate] |
| 50 to 500 nM | 500 to 30000 nM | – | – | O=C(c1cc(Cl)c(O)c(S(=O)(=O)Nc2cc(-c3ccccc3)c(F)cc2F)c1)N1CCCCC1 [I-102, 3-chloro-N-(2,4-difluoro-5-phenylphenyl)-2-hydroxy-5-[(piperidin-1-yl)carbonyl]benzene-1-sulfonamide] |
| 500 to 20000 nM | 500 to 30000 nM | – | – | O=C(O)c1ccc(-c2ccccc2)cc1NS(=O)(=O)c1cc(Cl)cc(Cl)c1O [I-249, 3-((3,5-dichloro-2-hydroxyphenyl)sulfonamido)-[1,1′-biphenyl]-4-carboxylic acid] |
| – | 50 to 500 nM | < 50 nM | – | O=C(c1cc(Cl)c(O)c(S(=O)(=O)Nc2cc(-c3ccccc3)c(F)cc2F)c1)N1CC[C@@H](F)C1 [I-119, (R)-3-chloro-N-(4,6-difluoro-[1,1′-biphenyl]-3-yl)-5-(3-fluoropyrrolidine-1-carbonyl)-2-hydroxybenzenesulfonamide] |
| 50 to 500 nM | 50 to 500 nM | – | – | CC(C)C(=O)Oc1c(Cl)cc(C(=O)N2CCC2)cc1S(=O)(=O)Nc1cc(-c2ccccc2)c(F)cc1F [I-158, 4-(azetidine-1-carbonyl)-2-chloro-6-([4,6-difluoro-[1,1-biphenyl]-3-yl]sulfamoyl)phenyl 2-methylpropanoate] |
| – | – | < 50 nM | < 50 nM | C[C@@]1(O)CCN(C(=O)c2cc(Cl)c(O)c(S(=O)(=O)Nc3cc(-c4ccccc4)c(F)cc3F)c2)C1 [I-148, (R)-3-chloro-N-(4,6-difluoro-[1,1′-biphenyl]-3-yl)-2-hydroxy-5-(3-hydroxy-3-methylpyrrolidine-1-carbonyl)benzenesulfonamide] |
| 500 to 20000 nM | 500 to 30000 nM | – | – | CC(C)(Oc1ccc(-c2ccccc2)cc1NS(=O)(=O)c1cc(Cl)cc(Cl)c1O)C(=O)O [I-239, 2-((3-((3,5-dichloro-2-hydroxyphenyl)sulfonamido)-[1,1′-biphenyl]-4-yl)oxy)-2-methylpropanoic Acid] |
| 50 to 500 nM | 50 to 500 nM | – | – | O=C(O)c1cc(Cl)c(O)c(S(=O)(=O)Nc2cc(-c3ccccc3)c(F)cc2F)c1 [I-95, 3-chloro-5-(N-(4,6-difluoro-[1,1′-biphenyl]-3-yl)sulfamoyl)-4-hydroxybenzoic Acid] |
| 500 to 20000 nM | 500 to 30000 nM | – | – | O=C(Nc1cc(-c2ccccc2)c(F)cc1F)c1cc(Br)cc(Cl)c1O [I-139, 5-bromo-3-chloro-N-(4,6-difluoro-[1,1′-biphenyl]-3-yl)-2-hydroxybenzamide] |
| 500 to 20000 nM | 500 to 30000 nM | – | – | O=C(O)c1cc(Cl)c(O)c(S(=O)(=O)Nc2cc(-c3ccccc3)cc(F)c2F)c1 [I-115, 3-chloro-5-[(2,3-difluoro-5-phenylphenyl)sulfamoyl]-4-hydroxybenzoic Acid] |
| 50 to 500 nM | 500 to 30000 nM | – | – | CO[C@@H]1CCN(C(=O)c2cc(Cl)c(O)c(S(=O)(=O)Nc3cc(-c4ccccc4)ccc3F)c2)C1 [I-141, 3-chloro-N-[4-fluoro-[1,1-biphenyl]-3-yl]-2-hydroxy-5-[(3R)-3-methoxypyrrolidine-1-carbonyl]benzene-1-sulfonamide] |
| 500 to 20000 nM | 500 to 30000 nM | – | – | O=C(O)COc1c(Cl)cc(Cl)cc1S(=O)(=O)Nc1cc(-c2ccccc2)ccc1F [I-143] |
| 500 to 20000 nM | 500 to 30000 nM | – | – | O=C(O)c1cc(Cl)c(O)c(S(=O)(=O)Nc2cc(-c3cccs3)c(F)cc2F)c1 [I-248, 3-chloro-5-[[2,4-difluoro-5-(thiophen-2-yl)phenyl]sulfamoyl]-4-hydroxybenzoic Acid] |

Reference: US11555012B2 (Nimbus Artemis, Inc., priority 2018, dated 2023)
